Measurements from PMC2704987 (Pharmacotherapy, 2009).
Like-named read-outs stand apart in the source and are kept apart here. Each block holds one compound with its values, some of them ahead of it.

Tests used:
[1] = oral azithromycin, 12 CF patients; cited from earlier work
[2] = adults, 150 mg/day; cited from earlier work
[3] = child with glioblastoma, cited from earlier work
[4] = cited from earlier work
[5] = cited from earlier work; remark: listed apart in the source
[6] = adults, 150 mg/day; cited from earlier work; remark: listed apart in the source
[7] = cited from earlier work; remark: listed apart in the source
[8] = assay type: in vivo, human; conditions: for AUC / Cmax: human, plasma, po, 120 mg/m^2/day, oral erlotinib 120 mg/m^2/day (150 mg)
[9] = children, 120 mg/m^2/day, range in parentheses; cited from earlier work
[10] = orally administered ganciclovir; cited from earlier work
[11] = adult patients with advanced malignant disease
[12] = cystic fibrosis patient, oral erlotinib 150 mg daily

SMILES: CC[C@H]1OC(=O)[C@H](C)[C@@H](O[C@H]2C[C@@](C)(OC)[C@@H](O)[C@H](C)O2)[C@H](C)[C@@H](O[C@@H]2O[C@H](C)C[C@H](N(C)C)[C@H]2O)[C@](C)(O)C[C@@H](C)CN(C)[C@H](C)[C@@H](O)[C@]1(C)O [azithromycin]
- Cmax, Tmax, and AUC values, CF patients versus healthy volunteers [1]: similar
- absorption rate constant (ka) and absolute bioavailability (F), CF patients versus healthy volunteers [1]: no statistically significant difference

- ka (absorption rate constant) ([8]; cystic fibrosis patient, oral erlotinib 120 mg/m^2/day): 1.51 h^−
- VdERL (apparent volume of distribution of erlotinib) ([8]; cystic fibrosis patient, oral erlotinib 120 mg/m^2/day, with pancrelipase): 60.4 L/m^2
- Apparent clearance of erlotinib [8, 12]: 4.9 L/h/m^2
- Apparent volume of distribution of erlotinib [8, 12]: 60.4 L
- rate of erlotinib absorption (ka) [8, 12]: 1.51 h⁻¹
- absorption of orally administered erlotinib in a cystic fibrosis patient ([8]; given concomitantly with pancreatic enzymes replacement therapy): not affected
- AUC ([8]; Day 1 AUCERL, cystic fibrosis patient, day 1, plasma): 18800 ng·h/mL
- Cmax ([8]; Day 1 Cmax, cystic fibrosis patient, day 1, plasma): 1440 ng/mL
- AUC ([8]; Day 8 AUCERL, cystic fibrosis patient, day 8 (steady state)): 25700 ng·h/mL
- Cmax ([8]; Day 8 Cmax, cystic fibrosis patient, day 8, plasma): 1460 ng/mL
SMILES: C#Cc1cccc(Nc2ncnc3cc(OCCOC)c(OCCOC)cc23)c1 [erlotinib]
- Day 1 AUCERL [2]: 16540 ± 11020 ng·h/mL
- Day 1 AUCERL ([3]; 70 mg/m^2/day): 19400 ng·h/mL
- Day 8 AUCERL ([3]; 70 mg/m^2/day): 32600 ng·h/mL
- ka ([3]; 70 mg/m^2/day): 0.59 h^−
- penetration of erlotinib into the CSF ([3]; oral erlotinib): modest
- bound to plasma proteins [4]: 95%
- solubility in water and methanol [5]: poor
- Day 1 AUCERL [6]: 19400 ± 10000 ng·h/mL
- half-life [7, 11]: 10 to 36 h
- time to maximum concentration (Cmax) after dose administration [7, 11]: 2 to 4 h
- bioavailability after oral administration with food ([7]; adults, administration with food): ≥ 100%
- elimination in feces ([7]; adults, biliary excretion): 63%
- bioavailability after oral administration ([7]; adults, without food): approximately 60%
- elimination in urine ([7]; adults): 13%
- Day 1 AUCERL [9]: 22.6 (18.2–27) mcg*h/mL
- Day 1 Cmax [9]: 1260 (490–2020) ng/mL
- Day 8 AUCERL [9]: 29.5 (12–47) mcg*h/mL

SMILES: Nc1nc(O)c2ncn(COC(CO)CO)c2n1 [ganciclovir]
- pharmacokinetic parameters in post-lung transplant patients with CF [10]: predictable
